This is an account of results in patent US20220296522A1, “BRYOID COMPOSITIONS, METHODS OF MAKING AND USE THEREOF” (Aphios Corporation, priority 2021, published 2022).

“Also recorded” adds a separate entry of the source.

For one series, the system named is alpha-secretase. Description: alpha-secretase activity in SHSY-5Y neuroblastoma cells (FIG. 10). The note with it: 10−9 M, versus Bryostatin-1. It is filed as cell-based. The text has this: Purified Bryoids at 10−^9 M are shown to increase alpha-secretase activity in SHSY-5Y neuroblastoma cells in FIG. 10.
Series [1] is described as follows: Biodistribution of radio-labeled Bryostatin-1 by different administration routes. It is filed as in vivo, mouse. The text has this:
It is worth mentioning that oil formulations were used for […] and intraperitoneal studies. Aqueous formulations were used for intravenous administration and PET formulation for intranasal administration.

The test system of another series is SK-HEP1 liver cells. As to the kind of experiment: Metabolism by SK-HEP1 liver cells. It is filed as in vitro ADME. The note with it: within 24 h.
For series [2], the system named is TS65DN transgenic mouse model of Down syndrome. Description: Morris water maze in TS65DN mouse model of Down syndrome, intranasal. Format: in vivo. The note with it: PET formulation. An excerpt: In this model, wild type mice improved over the 4 trials shown as a reduction in latency within the trial.
TS65DN mouse model of Down syndrome were purchased from MMRRC/Jackson Labs at 20-24 weeks of age and maintained in the LSUHSC-S vivarium. Segmentally trisomic Ts65Dn mice provide a postnatal model for Down syndrome.

A short description of series [3]: Solubility of Bryostatin-1 in solvents and oils by normal phase HPLC. The settings on record: for Concentration: theoretical 2.5 mg/100 mL. It is filed as physicochemical. Here is the method:
Based on the hydrophobicity of Bryostatin-1, we developed an oil-based formulation of Bryostatin-1. […] Isopropyl alcohol, Extra Virgin olive oil, sesame oil, and vegetable oil were all used as solvents. Thirty microliters of the stock solution were placed in each of 4 clean, dry HPLC vials. The ethanol was allowed to evaporate, leaving 25 micrograms in the vial. Then, 1.0 mL of the solvent was placed in the vial and vortexed to ensure proper mixing. These samples were then injected on a normal phase HPLC system, with a gradient of 10%-70% isopropyl alcohol in hexane as the mobile phase (specifically developed for this experiment). The concentration of each vial theoretically should be 2.5 mg/100 mL.
The reason for the higher concentrations than the standard (isopropyl alcohol) is due to the baseline. While attempting a baseline subtraction for each oil, there was negative absorbance so the blank IPA sample was subtracted from each sample's baseline. While this incorporates a little more area for integration, the amount of Bryostatin in the oil was quantifiable.

Series [4] relates to B6C3-Tg (APPswe, PSEN1 dE9) 85Dbo/J mice. As to the kind of experiment: Morris water maze in APP/PS1 Alzheimer's disease mice. Format: in vivo, mouse. The procedure: Mouse strain B6C3-Tg carrying mutant Swedish Amyloid precursor protein (sweAPP) and PS I (presenilin-1) genes associated with early onset Alzheimer's disease were subjected to water maze tests at 5-6 months of age.
In vivo studies were conducted using the Morris water maze to evaluate cognitive impairments and restoration in response to drug treatments. These studies used the mouse strain B6C3-Tg (APPswe, PSEN1 dE9) 85Dbo/J mice (MMRRC, Jackson Labs).

[5] abbreviates: over 72 h following intranasal administration.

In the case of `CCC/C=C/C=C/C(=O)O[C@H]1[C@H]2C=C3C[C@H]([C@@H](C)O)OC(=O)C[C@H](O)C[C@@H]4C[C@H](OC(C)=O)C(C)(C)[C@](O)(C[C@@H]5C/C(=C\C(=O)OC)C[C@H](/C=C/C(C)(C)[C@]1(OC(=O)C2)O3)O5)O4` [Bryoid B3, Bryostatin-3], the alpha-secretase activity entry in the series with alpha-secretase was “improve the production of alpha-secretase over Bryostatin-1”.
On the same count and under the same terms, as for bryostatin-3 26-ketone [Bryoid B16], the entry is “improve the production of alpha-secretase over Bryostatin-1”.
Regarding `CCC/C=C/C=C/C(=O)O[C@H]1/C(=C/C(=O)OC)C[C@H]2C[C@H]([C@@H](C)O)OC(=O)C[C@H](O)C[C@@H]3C[C@H](OC(C)=O)C(C)(C)[C@](O)(C[C@@H]4C/C(=C/C(=O)OC)C[C@H](/C=C/C(C)(C)[C@]1(O)O2)O4)O3` [Bryostatin-1], the “tissue distribution of 3H-labeled tracer” value was “most abundant in hippocampus, large intestine and urine” in series [1] (8 h following intranasal administration, normalized to CPM/g); “most abundant in hippocampus and urine” in series [1] (12 h following intranasal administration); “most abundant in hippocampus, urine and feces” in series [1] (24 h following intranasal administration); “most abundant in hippocampus and fat tissues” in series [1] (48 h following intranasal administration). In addition, the “accumulation in different tissues” value in series [1] (i.p. dosed group) is reported as “highest tissue accumulations”; in series [1] (i.v. dosed group), “highest tissue accumulations”; in series [1] (oral route (oil formulation)), “lowest”. The “accumulation in hippocampus and lung” value in series [1] (intranasal delivery, by 4 h) is given as “relative high levels of Bryostatin-1 accumulation”. Also, in series [1] (setting [5]), the Hippocampal content result was “relatively high hippocampal uptake rates were achieved and maintained; also recorded: slow rate of loss over 72 h”. Moreover, in series [1] (setting [5]), the Lung content result was “a peak at 4 h and rapid excretion by 8 h; also recorded: rapid rate of appearance at 4h followed by rapid loss at 8 h”. The “metabolism by liver cells” value in the series on SK-HEP1 liver cells was “not significantly metabolized”. The “inter-trial water maze performance (latency)” value in series [2] (0.01 μg intranasal) was “did not show this same improvement”; in series [2] (0.1 μg intranasal, p<0.05 compared to vehicle treated Down's mice) it was “inter-trial interval improvement”; in series [2] (1 μg intranasal, p<0.001 compared to vehicle treated transgenic Down's mice) it was “significant improvement”. Moreover, the Concentration in series [3] (Extra Virgin Olive Oil) is recorded as 2.9945 mg/100 mL; in series [3] (Extra Virgin olive with mixed natural tocopherol antioxidants, lecithin and medium chain triglyceride emulsifiers), 2.4431 mg/100 mL; in series [3] (Isopropyl Alcohol (standard)) it was 2.6035 mg/100 mL; in series [3] (Vegetable Oil) it was 2.5475 mg/100 mL. In series [3] (variety of oils), the solubility in oils entry was “soluble in a variety of different types of oil; also recorded: soluble in a variety of oils, with the best results in Extra Virgin Olive Oil, Vegetable Oil, and Extra Virgin Olive Oil with excipients”. For the same compound, the “protection against memory loss in water maze” value in series [4] (5 micrograms/mouse on alternative days orally in oil formulation, APP/PS1 mice 5-6 months of age, versus control animals) is listed as “significant protection against Alzheimer's disease mediated memory loss”. For the same compound, the “responses in water maze” value in series [4] (i.p. treated mice) was “did not find that i.p. treated mice showed as good responses”.
